Test [1] deals with T1, FGF-R1C ECD (Homo sapiens, UniProt P11362).
T1 sequence (P11362 22-376 limits assumed): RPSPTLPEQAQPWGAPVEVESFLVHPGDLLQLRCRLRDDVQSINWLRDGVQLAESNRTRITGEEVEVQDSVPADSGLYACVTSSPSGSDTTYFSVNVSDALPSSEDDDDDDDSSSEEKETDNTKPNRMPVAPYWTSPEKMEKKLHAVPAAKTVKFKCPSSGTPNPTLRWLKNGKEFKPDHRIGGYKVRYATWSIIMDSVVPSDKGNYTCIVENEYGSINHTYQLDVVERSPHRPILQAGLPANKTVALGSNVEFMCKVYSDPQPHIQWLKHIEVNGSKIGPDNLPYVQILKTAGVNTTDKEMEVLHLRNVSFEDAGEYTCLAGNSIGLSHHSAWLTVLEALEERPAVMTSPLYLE
Put plainly: biochemical. As for the experimental part:
(§1) KD affinity binding measurements were obtained by biolayer interferometry (BLI) instruments (Fortebio Octet HTX, or Sartorius Octet RH16 using either 8 or 16 channel mode.
(§2) For single concentration binding experiments, 50 μM peptide stocks in folding buffer were diluted 1:50 in mRNA display selection buffer (PBS pH7.4 supplemented with 0.05% Tween-20 and 0.01% BSA) in either a 96 well black plate, or a 384 well tilted bottom microplate (ForteBio). Biotinylated FGF-R protein was loaded onto Streptavidin-functionalised biosensors (ForteBio) and immersed into ~1 μM peptide to obtain association kinetics curves. Dissociation kinetics curves were obtained by subsequent immersion of ligand-associated loaded sensors into a 1:50 dilution of folding buffer in mRNA display selection buffer. Fitted KD data was adjusted for concentration as determined by UPLC-CAD.
(§3) For accurate multi-concentration KD determination, dilution series of each peptide were made, and association and dissociation kinetics curves were obtained as above for each concentration to fit a multi-point KD binding model. Data collection and analysis was performed using the Octet Instrument Control […]
(§4) concentration assay kinetics curves shown in supplementary Figure S 19-24.

For test [2], the target named is T2, FGF-R3C ECD (Homo sapiens, UniProt P22607).
T2 sequence (P22607 23-375 limits assumed): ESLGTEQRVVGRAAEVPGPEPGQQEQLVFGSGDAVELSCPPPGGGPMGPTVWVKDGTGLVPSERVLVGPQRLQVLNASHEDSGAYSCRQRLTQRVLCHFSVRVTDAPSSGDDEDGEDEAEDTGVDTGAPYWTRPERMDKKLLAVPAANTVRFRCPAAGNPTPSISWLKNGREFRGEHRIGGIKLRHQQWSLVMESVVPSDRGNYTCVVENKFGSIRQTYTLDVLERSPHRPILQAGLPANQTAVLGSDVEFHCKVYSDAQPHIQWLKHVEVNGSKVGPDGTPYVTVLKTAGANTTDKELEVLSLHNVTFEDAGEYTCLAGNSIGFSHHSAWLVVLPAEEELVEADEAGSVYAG
Put plainly: biochemical. As for the experimental part:
as §1, §2, §3, §4

Test [3] deals with T3, FGF-R4 ECD (Homo sapiens, UniProt P22455).
T3 construct: DNA constructs for the extracellular domain (ECD) of human FGF-; HPC4 (C); made in house; host or cells: HEK 293-6E
T3 sequence (P22455 22-369 limits assumed): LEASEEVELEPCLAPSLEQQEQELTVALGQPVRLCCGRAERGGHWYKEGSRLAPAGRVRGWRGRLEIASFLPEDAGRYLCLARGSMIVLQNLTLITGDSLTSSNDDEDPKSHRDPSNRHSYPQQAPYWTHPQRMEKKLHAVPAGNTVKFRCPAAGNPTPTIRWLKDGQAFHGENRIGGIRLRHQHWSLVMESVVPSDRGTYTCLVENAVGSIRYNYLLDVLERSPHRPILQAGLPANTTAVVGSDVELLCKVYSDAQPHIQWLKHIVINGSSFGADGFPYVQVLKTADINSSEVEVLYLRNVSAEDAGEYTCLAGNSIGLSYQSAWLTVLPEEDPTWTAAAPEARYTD
The experiment in a line: multi-concentration BLI of purified peptides. In kind it is binding. As for the experimental part: as §1, §2, §3, §4

For test [4], the target named is T3, FGF-R4 ECD. Put plainly: single concentration BLI of crude peptides. It counts as binding. The conditions noted are these: read-out: KD (4). Summed up: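 BLI, streptavidin sensors loaded with biotinylated receptor ECD. Single-point: ~1 μM crude peptide, PBS pH7.4/0.05% Tween-20/0.01% BSA; association then dissociation in buffer. KD corrected for UPLC-CAD-determined concentration.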

Test [5] concerns the target T1, FGF-R1C ECD. Put plainly: biochemical. In kind it is binding. Further details: DNA constructs for the extracellular domain (ECD) of human FGF-; HPC4 (C); made in house; host or cells: HEK 293-6E. Summed up:
(§5)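 Biotinylated FGF-R ECD on streptavidin biosensors was dipped into ~1 μM crude peptide in PBS pH7.4 with 0.05% Tween-20 and 0.01% BSA for association, then into buffer for dissociation, and followed by BLI. Fitted KD values were adjusted for peptide concentration measured by UPLC-CAD.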

Test [6] deals with T2, FGF-R3C ECD. The experiment in a line: biochemical. It counts as binding. Further details: DNA constructs for the extracellular domain (ECD) of human FGF-; HPC4 (C); made in house; host or cells: HEK 293-6E. Summed up:
as §5

The mark [7] stands for this setting: purified trimer-18 library peptides.
Where [8] appears, read: crude T18 selection 1 (1:1:1) peptides, single concentration BLI (Table S4).

Where two headings read alike, the source gives them in different places.

In general, Kd refers to the free concentration of one partner at which half of the binding sites on the other are occupied at equilibrium, for simple one-to-one binding. As to `CC[C@H](C)[C@@H]1NC(=O)[C@H](CCCCN)NC(=O)[C@H](CO)NC(=O)[C@H](CC(N)=O)NC(=O)[C@@H]2CCCN2C(=O)[C@@H]2CCCN2C(=O)[C@H](CCCNC(=N)N)NC(=O)[C@H](Cc2c[nH]cn2)NC(=O)[C@H](Cc2ccc(O)cc2)NC(=O)[C@@H](NC(=O)[C@H](CCSC)NC(C)=O)CSSC[C@@H](C(=O)NCC(=O)N[C@@H](CO)C(=O)NCC(=O)N[C@@H](CO)C(=O)N[C@@H](CC(=O)O)C(=O)N[C@@H](Cc2ccc(O)cc2)C(=O)N[C@@H](CCCCN)C(=O)N[C@@H](CC(=O)O)C(=O)N[C@@H](CC(=O)O)C(=O)N[C@@H](CC(=O)O)C(=O)N[C@@H](CC(=O)O)C(=O)N[C@@H](CCCCN)C(N)=O)NC(=O)[C@H](CCCCN)NC(=O)[C@H](CCCNC(=N)N)NC(=O)[C@H](Cc2c[nH]c3ccccc23)NC1=O` [4.14], the Kd is over 1 µM in test [1]; over 1 µM in test [2]; 0.524 µM in test [3] (setting [7]); 0.214 µM in test [4] (setting [8]); over 10 µM in test [5]; over 10 µM in test [6].
Turning to `CSCC[C@H](NC(C)=O)C(=O)N[C@H]1CSSC[C@@H](C(=O)NCC(=O)N[C@@H](CO)C(=O)NCC(=O)N[C@@H](CO)C(=O)N[C@@H](CCC(=O)O)C(=O)N[C@@H](CCC(=O)O)C(=O)NCC(=O)N[C@@H](CO)C(=O)NCC(=O)N[C@@H](CO)C(=O)N[C@@H](CC(=O)O)C(=O)N[C@@H](Cc2ccc(O)cc2)C(=O)N[C@@H](CCCCN)C(=O)N[C@@H](CC(=O)O)C(=O)N[C@@H](CC(=O)O)C(=O)N[C@@H](CC(=O)O)C(=O)N[C@@H](CC(=O)O)C(=O)N[C@@H](CCCCN)C(N)=O)NC(=O)[C@H](CCCNC(=N)N)NC(=O)[C@H](CCCNC(=N)N)NC(=O)[C@H](Cc2c[nH]c3ccccc23)NC(=O)[C@H](CC(C)C)NC(=O)[C@H](CCCCN)NC(=O)[C@H](Cc2ccc(O)cc2)NC(=O)[C@H](Cc2ccc(O)cc2)NC(=O)[C@H](Cc2ccc(O)cc2)NC(=O)[C@H](CC(C)C)NC(=O)[C@H]([C@@H](C)O)NC(=O)[C@H]([C@@H](C)O)NC1=O` [4.9], the Kd is over 1 µM in test [1]; over 1 µM in test [2]; over 1 µM in test [3] (setting [7]); 0.001 µM in test [4] (setting [8]); 0.699 µM in test [5]; 2.25 µM in test [6].
Take `CSCC[C@H](NC(C)=O)C(=O)N[C@H]1CSSC[C@@H](C(=O)NCC(=O)N[C@@H](CO)C(=O)NCC(=O)N[C@@H](CO)C(=O)N[C@@H](CC(=O)O)C(=O)N[C@@H](Cc2ccc(O)cc2)C(=O)N[C@@H](CCCCN)C(=O)N[C@@H](CC(=O)O)C(=O)N[C@@H](CC(=O)O)C(=O)N[C@@H](CC(=O)O)C(=O)N[C@@H](CC(=O)O)C(=O)N[C@@H](CCCCN)C(N)=O)NC(=O)[C@H](Cc2c[nH]cn2)NC(=O)[C@H](CCCNC(=N)N)NC(=O)[C@H](CC(C)C)NC(=O)[C@H](CC(=O)O)NC(=O)[C@H](CCCCN)NC(=O)[C@H](Cc2ccc(O)cc2)NC(=O)[C@H](CC(C)C)NC(=O)[C@H](CC(C)C)NC(=O)[C@H](C(C)C)NC(=O)[C@H](CC(N)=O)NC1=O` [4.17]: the dissociation constant Kd in test [1] was over 1 µM; in test [2] it was over 1 µM; in test [3] (setting [7]), over 1 µM; in test [4] (setting [8]), over 10 µM; in test [5], over 10 µM; in test [6], over 10 µM.
For the compound `CSCC[C@H](NC(C)=O)C(=O)N[C@H]1CSSC[C@@H](C(=O)NCC(=O)N[C@@H](CO)C(=O)NCC(=O)N[C@@H](CO)C(=O)N[C@@H](CC(=O)O)C(=O)N[C@@H](Cc2ccc(O)cc2)C(=O)N[C@@H](CCCCN)C(=O)N[C@@H](CC(=O)O)C(=O)N[C@@H](CC(=O)O)C(=O)N[C@@H](CC(=O)O)C(=O)N[C@@H](CC(=O)O)C(=O)N[C@@H](CCCCN)C(N)=O)NC(=O)[C@H](CC(C)C)NC(=O)[C@H](CCC(N)=O)NC(=O)[C@H](Cc2c[nH]c3ccccc23)NC(=O)[C@H](CCCCN)NC(=O)[C@H](CCC(=O)O)NC(=O)[C@H](Cc2c[nH]c3ccccc23)NC(=O)[C@H](CC(N)=O)NC(=O)[C@H](Cc2ccc(O)cc2)NC(=O)[C@H](Cc2ccccc2)NC(=O)[C@H](CCCNC(=N)N)NC(=O)[C@H]([C@@H](C)O)NC(=O)[C@H](Cc2ccc(O)cc2)NC1=O` [4.13], the Kd in test [1] is over 1 µM; in test [2], over 1 µM; in test [3] (setting [7]), over 1 µM; in test [4] (setting [8]), over 10 µM; in test [5], 0.017 µM; in test [6], over 10 µM.
On to `CSCC[C@H](NC(C)=O)C(=O)N[C@H]1CSSC[C@@H](C(=O)NCC(=O)N[C@@H](CO)C(=O)NCC(=O)N[C@@H](CO)C(=O)N[C@@H](CC(=O)O)C(=O)N[C@@H](Cc2ccc(O)cc2)C(=O)N[C@@H](CCCCN)C(=O)N[C@@H](CC(=O)O)C(=O)N[C@@H](CC(=O)O)C(=O)N[C@@H](CC(=O)O)C(=O)N[C@@H](CC(=O)O)C(=O)N[C@@H](CCCCN)C(N)=O)NC(=O)[C@H](CCCNC(=N)N)NC(=O)[C@H](CC(C)C)NC(=O)[C@H](CCCCN)NC(=O)[C@H]([C@@H](C)O)NC(=O)[C@H](C(C)C)NC(=O)[C@H](CCCCN)NC(=O)[C@H](Cc2ccc(O)cc2)NC(=O)[C@H](Cc2c[nH]c3ccccc23)NC(=O)[C@H]([C@@H](C)O)NC(=O)[C@H](C(C)C)NC1=O` [4.4], for which the Kd was over 1 µM in test [1]; over 1 µM in test [2]; over 1 µM in test [3] (purified NNK library peptides); 0.057 µM in test [4] (crude NNK peptides, single concentration BLI (Table S3)); over 10 µM in test [5]; over 10 µM in test [6].
Regarding `CSCC[C@H](NC(C)=O)C(=O)N[C@H]1CSSC[C@@H](C(=O)NCC(=O)N[C@@H](CO)C(=O)NCC(=O)N[C@@H](CO)C(=O)N[C@@H](CC(=O)O)C(=O)N[C@@H](Cc2ccc(O)cc2)C(=O)N[C@@H](CCCCN)C(=O)N[C@@H](CC(=O)O)C(=O)N[C@@H](CC(=O)O)C(=O)N[C@@H](CC(=O)O)C(=O)N[C@@H](CC(=O)O)C(=O)N[C@@H](CCCCN)C(N)=O)NC(=O)[C@H]([C@@H](C)O)NC(=O)[C@H](C(C)C)NC(=O)[C@H](CC(C)C)NC(=O)[C@H](CC(C)C)NC(=O)[C@H](Cc2c[nH]c3ccccc23)NC(=O)[C@H](Cc2ccc(O)cc2)NC(=O)[C@H](CC(C)C)NC(=O)[C@H](C(C)C)NC(=O)[C@H](CCC(=O)O)NC(=O)[C@H](CCCNC(=N)N)NC(=O)[C@H](CCC(=O)O)NC1=O` [4.15], the dissociation constant (Kd) in test [1] is over 1 µM; in test [2], over 1 µM; in test [3] (setting [7]), 0.378 µM; in test [4] (setting [8]), 0.128 µM; in test [5], 0.048 µM; in test [6], over 10 µM.
